Measurements from patent US11053170B2, “Liquid urease inhibitor formulations” (YARA INTERNATIONAL ASA, priority 2016, dated 2021).

Columns and labels:
[1] = Stability of nBTPT on urea granules (coated); assay type: physicochemical; conditions: 500 ppm, bagged, room temperature
Experimental: In a next step, the nBTPT material was slowly added. A residence time of 10 minutes was applied and the rotating speed of the drum was consequently the same in each experiment. Larger scale experiments with amounts up to 40 kg of fertilizer material were performed in a concrete mixer.
The samples were stored under several conditions, dependent on the type of samples: • Bagged at room temperature (20° C.) or in a Nissen hut (an unconditioned bulk storage hall) • Open to air in a Nissen hut
Typically, a day/night cycle is generated in the Nissen hut, with temperature fluctuations between 0 to 42° C. and fluctuations of relative humidity between 20 and 90%, which can be compared with real life storage in silos.

urease = conditions: on urea; Rheinland soil (pH 6.5) and Palencia soil (pH 7.5); 25° C., 14 days
Experimental: Erlenmeyer flasks were filled with 300 g air-dried, arable topsoil, irrigated to a desired % of its WHC (Water Holding Capacity), incubated for 6 days prior to the application of the fertilizers. Fertilizers (2.5-3.15 mm granule size) at a concentration of 100 mg N (Nitrogen)/flask were applied over the soil surface. Boric acid traps were installed to catch volatile ammonia from the air above the topsoil, and the Erlenmeyer flasks were installed in a Phytotron chamber at 25° C. at windy but not dry conditions.

rat = conditions: cited from earlier work

| SMILES | nBTPT degradation in 155 days [1] | urease inhibitory activity and volatilization control (cumulated volatile ammonia losses) (urease) | toxicity oral rat LD50 (rat) |
| --- | --- | --- | --- |
| CCCCNP(N)(N)=S [nBTPT, N-(n-butyl) thiophosphoric triamide] | about 75% | no statistically significant difference | – |
| CN1CCCC1 [NMP, N-methylpyrrolidine] | – | – | 3914 mg/kg |
